# Measurements as given in US12110293B2, “Substituted triazolo quinoxaline derivatives” (GRÜNENTHAL GMBH, priority 2018, dated 2024).
# Target: T1, glucocorticoid receptor (Homo sapiens, UniProt P04150)
# T1 construct: expressed in transfected cells
# T1 sequence (P04150 524-758 limits assumed): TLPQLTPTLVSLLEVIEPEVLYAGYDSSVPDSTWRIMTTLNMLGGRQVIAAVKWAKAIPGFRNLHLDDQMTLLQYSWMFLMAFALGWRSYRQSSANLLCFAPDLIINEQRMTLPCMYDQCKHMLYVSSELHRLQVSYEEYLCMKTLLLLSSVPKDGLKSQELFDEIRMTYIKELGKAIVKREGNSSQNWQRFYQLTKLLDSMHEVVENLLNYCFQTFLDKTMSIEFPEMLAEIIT
# Test: Agonistic mode of action on the glucocorticoid receptor (CHO-Gal4/GR luciferase reporter cell line)
# Format: cell-based
# Conditions: range class observed in the agonistic assay or the antagonistic assay (CHO-Gal4/GR reporter cells); table does not say which mode applies per example
# Procedure, shortened: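 CHO cells stably carrying GAL4 DBD–GR ligand-binding-domain fusion and GAL4-UAS firefly luciferase reporter, 5000 cells/well grown 24 h, then compounds added in Opti-MEM at 8 half-log concentrations from 10 μM to 0.003 μM (0.5% DMSO), quadruplicates. Agonist-induced luminescence read on FLIPR Tetra; EC50 calculated.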
row,IC50 or EC50 (agonist or antagonist mode not specified) [nM],Structure (SMILES)
1,1000 to 15000,"Cc1cc2c(c(F)c1-c1cccc3c1ccn3CC(F)F)-n1c(C)nnc1C(C)(C)N2 [Example 392, 8-[1-(2,2-Difluoro-ethyl)-1H-indol-4-yl]-9-fluoro-1,4,4,7-tetramethyl-5H-[1,2,4]triazolo[4,3-a]quinoxaline]"
2,100 to 1000,"Cc1cc(-c2c(F)cc3c(c2C(F)F)-n2c(C)nnc2C(C)(C)N3)c2ccn(S(C)(=O)=O)c2c1 [Example 478, 9-(Difluoro-methyl)-7-fluoro-1,4,4-trimethyl-8-(6-methyl-1-methylsulfonyl-1H-indol-4-yl)-5H-[1,2,4]triazolo[4,3-a]quinoxaline]"
3,100 to 1000,"Cc1c(-c2cc(F)cc3c(C)c[nH]c23)c(OC(F)(F)F)cc2c1-n1c(C)nnc1C(C)(C)N2 [Example 458, 8-(5-Fluoro-3-methyl-1H-indol-7-yl)-1,4,4,9-tetramethyl-7-(trifluoromethyloxy)-5H-[1,2,4]triazolo[4,3-a]quinoxaline]"
4,1000 to 15000,"COCCn1ccc2c(-c3c(OC)cc4c(c3F)-n3c(C)nnc3C(C)(C)N4)cccc21 [Example 288, 9-Fluoro-7-methoxy-8-[1-(2-methoxy-ethyl)-1H-indol-4-yl]-1,4,4-trimethyl-5H-[1,2,4]triazolo[4,3-a]quinoxaline]"
5,< 100,"Cc1nnc2n1-c1c(cc(F)c(-c3cc(F)cc4c3ccn4S(C)(=O)=O)c1F)NC2(C)C [Example 3, 7,9-difluoro-8-(6-fluoro-1-(methylsulfonyl)-1H-indol-4-yl)-1,4,4-trimethyl-4,5-dihydro-[1,2,4]triazolo[4,3-a]quinoxaline]"
6,1000 to 15000,"Cc1c(-c2cc(F)cc3c2ccn3S(C)(=O)=O)c(C(F)(F)F)cc2c1-n1c(C)nnc1C(C)(C)N2 [Example 83, 8-(6-Fluoro-1-methylsulfonyl-1H-indol-4-yl)-1,4,4,9-tetramethyl-7-(trifluoromethyl)-5H-[1,2,4]triazolo[4,3-a]quinoxaline]"
7,< 100,"Cc1cc2c(c(C)c1-c1cccc3c(C)c[nH]c13)-n1c(C)nnc1C(C)(C)N2 [Example 356, 1,4,4,7,9-Pentamethyl-8-(3-methyl-1H-indol-7-yl)-5H-[1,2,4]triazolo[4,3-a]quinoxaline]"
